The source of these data is patent US20030114482A1, “Use of retinoid receptor antagonists or agonists in the treatment of cartilage and bone pathologies” (priority 1999, published 2003).

In data set [1] the test system is RARE/β-galactosidase reporter construct in F9 teratocarcinoma cell line. As to the kind of experiment: F9 teratocarcinoma RARE/β-galactosidase reporter bioassay. Type of data set: cell-based.
Description: The β-gal assay consists of an F9 teratocarcinoma cell line stably transfected with a reporter construct which contains a 64 bp retinoic acid-response element (RARE) from the promoter region of the human RARβ gene (Ellis et al., Nature 343, 377-381 (1990)) placed immediately upstream of the E. coli lacZ gene. […] Cells were maintained on gelatin-coated dishes in modified L15 CO2 tissue culture medium (Specialty Media, Lavallette, N.J.) supplemented with 20% fetal calf serum and 0.8 mg/ml G418 (complete medium), and were used when 80-90% confluent.
To prepare tissue extracts, tissues were surgically isolated from Day 10 chick embryos and included. The metaphyseal-diaphyseal portion of cartilaginous humerus and tibia from which adherent perichondral tissues were carefully removed, liver, brain, gizzard and heart. During isolation, all tissues were kept in saline on ice under yellow safety light conditions to protect the retinoids. […]
Briefly, cultures were fixed with 0.1% glutaraldehyde in 0.1 M phosphate buffer pH 7.0 for 15 min at room temperature. […] After rinsing again, cultures were extracted with 0.2 ml of DMSO and absorbance of the extracted material was determined at 655 nm using a Perkin-Elmer spectrophotometer. […]
Data set [2] relates to cephalic core sternal chondrocytes. In words: Mineralization of cultured cephalic core sternal chondrocytes, alizarin red staining. The conditions noted are these: 6 days. The format is cell-based, chick. As for the experimental part:
(§1) Cell populations rich in prehypertrophic and early hypertrophic chondrocytes were isolated from the cephalic core region of Day 17-18 chick embryo sterna, while immature chondrocytes were isolated from the caudal sternal region (Gibson and Flint, J. Cell Biol. 101, 277-284 (1985); Pacifici et al., Exp. Cell Res. 195, 38-46 (1991); Iwamoto et al., Exp. Cell Res. 207, 413-420 (1993b)). The dissected cephalic and caudal tissues were incubated for 1 hr at 37° C. in saline containing 0.1% type 1-S collagenase (Sigma Chemical Co., St. Louis, Mo.); the cells released after this incubation were discarded as they consisted mainly of perichondrial and blood cells. The remaining tissue was incubated in a fresh mixture of 0.25% trypsin and 0.1% collagenase for 3 hr at which point it was completely digested. The freshly isolated chondrocytes were plated at a density of 2×10^5 cells/well in 12-well plates, 1×10^6 cells/60 mm dish or 3×10^6 cells/100 mm dish. The cephalic core chondrocytes were grown continuously, without subculturing, for 2 to 3 weeks in monolayer. During the first 2 days, cultures received 4 U/ml of testicular hyaluronidase to minimize cell detachment (Leboy et al., J. Biol. Chem. 264, 17281-17286 (1989)), and cultures became confluent by 2 weeks. The caudal immature chondrocytes were first grown for 5 days at which point floating immature chondrocytes were separated from attached contaminating fibroblastic cells. The floating cells were trypsinized and replated in secondary cultures in the presence of hyaluronidase to increase cell attachment. Cultures were fed every other day with Dulbecco's modified high-glucose Eagle's medium (GIBCO BRL, Gaithersburg, Md.) containing 10% defined fetal calf serum (Hyclone, Logan, Utah), 2 mM L-glutamine, and 50 U/ml penicillin and streptomycin (Pacifici et al., Exp. Cell Res. 195, 38-46 (1991)). When indicated, cultures were treated with all-trans-RA (Sigma) or combinations of all-trans-RA and Ro 41-5253. […]

Data set [3] has as its system caudal sternal chondrocytes. As to the kind of experiment: Cultured immature caudal sternal chondrocytes, Northern blot of type X collagen. Type of data set: cell-based, chick. Here is the method:
as §1

The test system of data set [4] is RARE/β-galactosidase reporter construct in F9 teratocarcinoma cell line. The note with it: cited from earlier work.
The test system of data set [5] is cephalic core sternal chondrocytes. In words: Cultured cephalic core sternal chondrocytes, alkaline phosphatase and type X collagen gene expression. The format is cell-based, chick. As for the experimental part:
as §1, with “41-5253. Stock solutions of these retinoids were prepared in DMSO and were diluted into working solutions in 95% ethanol; control dishes received an equivalent amount of vehicle without retinoids. To analyze mineralization, cephalic sternal control and retinoid-treated cultures were supplemented with 3 mM β-glycerophosphate to serve as a phosphate source. During these various regimens, medium was changed daily. To localize calcium deposits, the cell layers were stained with 0.5% alizarin red S solution, pH 4.0, for 5 min at room temperature. In experiments in which cultures were treated for 2, 4 or 6 days, retinoid treatments were initiated so that all cultures (including control cultures) were harvested simultaneously.” for “41-5253.”

Data set [6] concerns RARa, β and γ. The note with it: cited from earlier work.
In data set [7] the test system is humerus development (chondrocyte maturation, endochondral ossification). As to the kind of experiment: Antagonist-filled bead implantation in chick embryo wing bud, humerus development. Type of data set: in vivo. Here is the method:
This procedure was carried out as described previously (Noji et al., Acta Histochem. Cytochem. 23, 353-366 (1990); Koyama et al., Dev. Dynam. 203, 152-162 (1995)). Briefly, chick embryos or embryo parts were fixed with 4% paraformaldehyde for 4 hr or overnight, embedded in paraffin and sectioned. The 5 μm thick sections were pretreated with 1 μg/ml proteinase K (Sigma, St. Louis, Mo.) in 50 mM Tris, 5 mM EDTA, pH 7.5 at room temperature for 1 min, immediately postfixed in 4% paraformaldehyde buffer for 10 min, and then washed twice in PBS containing 2 mg/ml glycine for 10 min/wash. Sections were treated for 15 min with a freshly prepared solution of 0.25% acetic anhydride in triethanolamine buffer. Sections were hybridized with ^35S-labeled antisense or sense chick cDNA riboprobes (approximately 1×10^6 DPM/section) at 50° C. for 16 hr. After hybridization, slides were washed three times with 2×SSC containing 50% formamide at 50° C. for 20 min/wash, treated with 20 μg/ml RNaseA for 30 min at 37° C., and finally washed three times with 0.1×SSC at 50° C. for 10 min/wash. Sections were coated with Kodak NTB3 emulsion diluted 1:1 with water, exposed for 7 days, and developed with Kodak D19 for 3 min at 20° C. After staining with hematoxylin and eosin, slides were analyzed with a Nikon microscope using bright and dark field optics.
This range of concentrations was based on previous studies (see, for example, Lu et al., Development 124, 1643-1651 (1997)). Antagonist solutions were prepared in DMSO and used under yellow light conditions; control beads were soaked in DMSO alone. Beads were then dipped very briefly in phenol red-containing saline (HBSS) so that they were more readily visible during implantation.
Antagonist-containing or control beads were implanted in the wing bud of stage 21-22 (Day 3-3.5) or stage 27-28 (Day 5.5) chick embryos (Hamburger and Hamilton, J. Morphol. 88, 49-92 (1951)); contralateral wing bud served as control. A small window was opened in the egg shell and a small incision was made on the antero-dorsal proximal portion of the bud. One bead or several beads were then placed in the vicinity of the prospective humerus as specified below, and eggs were sealed and returned to the incubator. On the day of analysis, embryos were sacrificed by decapitation, and control and operated wings were examined by microscopy, using a Nikon SMZ-U dissecting photomicroscope, and humerus length was measured micrometrically. Because length of control humeri varied slightly from embryo to embryo, possibly reflecting slight differences in age, humeri were considered affected by antagonist treatment only if their length was shortened at least 25% over control value. Companion control and antagonist-treated limbs were processed for histology and in situ hybridization using tissue sections.
Having shown that RAR gene expression changes during chondrocyte maturation and that the cartilaginous elements as well as their surrounding perichondrial tissues contain endogenous retinoids, experiments were carried out to determine what roles the RARs and their ligands may play during chondrocyte maturation and skeletogenesis (see Example I, Antagonist Treatment). To approach this question, a bead containing retinoid antagonists was implanted in the vicinity of the prospective humeral mesenchymal condensation in stage 21-22 (Day 3-3.5) chick embryos and determined whether humerus development had been impaired by Day 10 in vivo.

Data set [8] deals with T1, RARγ (Homo sapiens, UniProt P13631).
T1 sequence (P13631 1-454): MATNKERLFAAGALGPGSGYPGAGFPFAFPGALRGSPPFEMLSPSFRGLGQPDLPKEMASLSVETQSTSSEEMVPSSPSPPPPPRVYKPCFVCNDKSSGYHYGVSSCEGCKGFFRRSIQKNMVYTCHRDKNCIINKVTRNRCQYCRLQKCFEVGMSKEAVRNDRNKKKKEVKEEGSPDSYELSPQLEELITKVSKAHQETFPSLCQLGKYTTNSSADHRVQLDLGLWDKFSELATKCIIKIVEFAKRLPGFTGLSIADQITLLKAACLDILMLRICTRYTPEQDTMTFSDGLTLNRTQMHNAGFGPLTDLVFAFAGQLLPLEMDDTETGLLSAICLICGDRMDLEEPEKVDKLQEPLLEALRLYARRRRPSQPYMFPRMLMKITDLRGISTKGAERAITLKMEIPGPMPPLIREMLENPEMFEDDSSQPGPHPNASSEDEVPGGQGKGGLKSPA
The conditions noted are these: cited from earlier work.

Data set [9] has as its target T1, RARγ. As to the kind of experiment: RAR antagonism, IC50 for RARγ (literature). The format is biochemical.
Setting [10] is: beads implanted Day 5.5, examined Day 8.5.

Turning to `CC1=C(/C=C/C(C)=C\C=C\C(C)=C\C(=O)O)C(C)(C)CCC1` [9-cis-RA], the “efficiency of stimulating transcription, fold lower than all-trans-RA” value in [1] (F9 reporter cells, unpublished observations) stood at 10 fold.

On to `CC1=C(/C=C/C(C)=C/C=C/C(C)=C/C(=O)O)C(C)(C)CCC1` [all-trans-RA], for which the “mineral deposition (alizarin red)” value in data set [2] (25 or 50 nM, with β-glycerophosphate) is “abundant alizarin red-stainable mineral”. Further, the “type X collagen transcripts” value in [3] (50 nM, 2, 4 or 6 days) was “marked time-dependent increase”. In addition, the “lowest exogenous concentration to which reporter cells are very sensitive (high expression of β-gal)” value in [4] was 10 pM. The “alkaline phosphatase gene expression” value in data set [5] (50 nM) is “increased dramatically”. Besides, the “type X collagen expression” value in data set [5] (50 nM, 6 days of treatment) is recorded as “essentially eliminated”. For the same molecule, the “β-galactosidase reporter response (histochemical)” value in data set [1] (3 nM, 24 hr, positive control) was “positive”.

Turning to `CCCCCCCOc1cc2c(cc1/C(C)=C/c1ccc(C(=O)O)cc1)C(C)(C)CCS2(=O)=O` [Ro 41-5253], in data set [2] (500 nM with 25 or 50 nM all-trans-RA), the “mineralization on co-treatment with all-trans-RA” value was “almost no mineralization”. Further, in data set [2] (antagonist alone), the “mineralization, antagonist alone” value is “had no effects”. In addition, in [3] (antagonist alone), the “type X collagen transcripts, antagonist alone” value is given as “did not have major effects”. Also, in data set [3] (co-treatment 500 nM with 50 nM all-trans-RA), the “effect on all-trans-RA-induced increase in type X collagen transcripts” value was “significantly, though not totally, blocked”. Moreover, the “antagonism across RAR isotypes (selectivity in words)” value in data set [6] was “antagonistic effects on all RAR isoforms but preferentially on RARa”. For the same molecule, the “alkaline phosphatase and type X collagen gene expression, antagonist alone” value in data set [5] (antagonist alone) is recorded as “no major effects”. The “effect on all-trans-RA responses of alkaline phosphatase and type X collagen genes” value in data set [5] (co-treatment with 50 nM all-trans-RA, Ro 41-5253 at 500 nM) is recorded as “counteracted”. Moreover, the “humerus shortening versus control contralateral humerus” value in data set [7] (bead implanted stage 21-22, Day 10 embryos) is “about 50%”. Besides, the IC50 (commonly the midpoint of a concentration-inhibition curve) in [8] was 3.3 µM.

As to `Cc1ccc(C2=CCC(C)(C)c3ccc(C#Cc4ccc(C(=O)O)cc4)cc32)cc1` [AGN 109], the “antagonism across RAR isotypes (selectivity in words)” value in data set [6] was “inhibits equally well RARa, β and γ”. Further, the “fold lower IC50 for RARγ compared to Ro 41-5253” value in data set [9] is recorded as approximately 500 fold. Moreover, the “embryos with inhibited humerus development” value in data set [7] (3-4 beads implanted Day 5.5 (stage 28), examined Day 8.5) is recorded as 6/7. Also, in data set [7] (bead implanted at early stage, Day 10 humeri), the “chondrocyte maturation and endochondral ossification in treated humerus (histology, in situ hybridization)” value was “chondrocyte maturation and long bone development are interrupted”. In [7] (bead implanted stage 21-22, Day 10), the “concentration required for high frequency of humeral defects, relative to Ro 41-5253” value is reported as “much lower concentrations”. Also, in data set [7] (setting [10]), the “hypertrophy and RARγ / type X collagen transcripts in treated humeri” value is “had not advanced to the hypertrophic stage and lacked transcripts encoding RARγ and type X collagen”; the “type II collagen expression in treated humeri (cell viability and differentiated functions)” value is recorded as “very strong expression of type II collagen”. Besides, in data set [7] (beads implanted stage 28 (Day 5.5), examined Day 14), the “delay of humerus development (reversibility)” value is on record as “about 5 days”. The “inhibition of humerus development” value in data set [7] (single bead implanted Day 5.5 (stage 28), examined Day 8.5 (5/5)) is “not very effective”. The IC50 in data set [8] is 0.005 µM.
